Data from patent US20240025912A1 (Merck Sharp & Dohme LLC, priority 2022, published 2024).

Molecular target: GST-RIPK1 (recombinant GST-RIPK1 kinase domain (residues 1-327)) (Homo sapiens (Human), UniProt Q13546)
Assay: RIPK1-ADP-Glo Enzymatic Assay
Assay type: biochemical
Conditions: 25 nM GST-RIPK1, 300 μM ATP, 3 μM dephosphorylated-MBP, 30 min pre-incubation, 150 min reaction
Procedure: The enzymatic activity of RIPK1 is measured using an assay derived from ADP-Glo kit (TMPromega), which provides a luminescent-based ADP detection system. Specifically, the ADP generated by RIPK1 kinase is proportionally detected as luminescent signals in a homogenous fashion. In this context, the assessment of the inhibitory effect of small molecules (EC50) is measured by the effectiveness of the compounds to inhibit the ATP to ADP conversion by RIPK1.
In this assay, the potency (EC50) of each compound was determined from a ten-point (1:3 serial dilution; top compound concentration of 100000 nM) titration curve using the following outlined procedure. To each well of a white ProxiPlus 384 well-plate, 30 nL of compound (1% DMSO in final assay volume of 3 μL) was dispensed, followed by the addition of 2 μL of 1× assay buffer (25 mM Hepes 7.3, 20 mM MgCl2, 50 mM NaCl, 1 mM DTT, 0.005% Tween20, and 0.02% BSA) containing 37.5 nM of GST-RIPK1 (recombinant GST-RIPK1 kinase domain (residues 1-327) enzyme produced from baculovirus-transfected Sf21 cells: MW 62 kDa). Plates were placed in an ambient temperature humidified chamber for a 30 min pre-incubation with compound. Subsequently, each reaction was initiated by the addition of 1 μL 1× assay buffer containing 900 μM ATP and 3 μM dephosphorylated-MBP substrate. The final reaction in each well of 3 μL consists of 25 nM of GST-RIPK1, 300 μM ATP, and 3 μM dephosphorylated-MBP. Kinase reactions were allowed to proceed for 150 min prior to adding ADP-Glo reagents per Promega's outlined kit protocol. Dose-response curves were generated by plotting percent effect (% product conversion; Y-axis) vs. Log 10 compound concentrations (X-axis). EC50 values were calculated using a non-linear regression, four-parameters sigmoidal dose-response model.

Chain of GST-RIPK1 (recombinant GST-RIPK1 kinase domain (residues 1-327)) (Q13546 1-327): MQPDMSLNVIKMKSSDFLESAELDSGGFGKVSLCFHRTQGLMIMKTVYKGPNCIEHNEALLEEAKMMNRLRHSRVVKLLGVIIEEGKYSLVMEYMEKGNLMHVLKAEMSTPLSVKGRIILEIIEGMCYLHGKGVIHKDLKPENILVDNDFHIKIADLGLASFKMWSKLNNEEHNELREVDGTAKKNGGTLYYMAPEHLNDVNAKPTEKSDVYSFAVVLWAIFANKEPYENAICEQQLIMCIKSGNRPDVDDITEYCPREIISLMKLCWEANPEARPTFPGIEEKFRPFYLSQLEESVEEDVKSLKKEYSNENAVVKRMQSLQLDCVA

| EC50 [µM] | Structure (SMILES) |
| --- | --- |
| 0.395 | N#CC12CC(n3nc4n(c3=O)[C@@H](c3cc(F)cc(F)c3)CS4)(C1)C2 [Compound 1-64, (S)-3-(5-(3,5-difluorophenyl)-3-oxo-5,6-dihydrothiazolo[2,3-c][1,2,4]triazol-2(3H)-yl)bicyclo[1.1.1]pentane-1-carbonitrile] |
| 0.874 | N#CC12CC(n3nc4n(c3=O)[C@H](c3cccc(C(F)(F)F)c3)CC4)(C1)C2 [Compound 1-49, (S)-3-(3-oxo-5-(3-(trifluoromethyl)phenyl)-6,7-dihydro-3H-pyrrolo[2,1-c][1,2,4]triazol-2(5H)-yl)bicyclo[1.1.1]pentane-1-carbonitrile] |
| 0.165 | N#CC12CC(n3nc4n(c3=O)[C@H](c3cnccn3)CC4)(C1)C2 [Compound 4-8, (S)-3-(3-oxo-5-(pyrazin-2-yl)-6,7-dihydro-3H-pyrrolo[2,1-c][1,2,4]triazol-2(5H)-yl)bicyclo[1.1.1]pentane-1-carbonitrile] |
| 0.044 | N#CC12CC(n3nc4n(c3=O)[C@H](c3ccc(Cl)cc3)CC4)(C1)C2 [Compound 1-46, (S)-3-(5-(4-chlorophenyl)-3-oxo-6,7-dihydro-3H-pyrrolo[2,1-c][1,2,4]triazol-2(5H)-yl)bicyclo[1.1.1]pentane-1-carbonitrile] |
| 0.0261 | O=c1n(C23CC(F)(C2)C3)nc2n1[C@H](c1ccccc1F)CC2 [Compound 1-9, (5S)-2-(3-fluorobicyclo[1.1.1]pentan-1-yl)-5-(2-fluorophenyl)-2,5,6,7-tetrahydro-3H-pyrrolo[2,1-c][1,2,4]triazol-3-one] |
| 0.114 | COC(=O)C12CC(n3nc4n(c3=O)[C@H](c3cc(F)cc(F)c3)CC4)(C1)C2 [Compound 1-18, methyl 3-[(5S)-5-(3,5-difluorophenyl)-3-oxo-6,7-dihydro-3H-pyrrolo[2,1-c][1,2,4]triazol-2(5H)-yl]bicyclo[1.1.1]pentane-1-carboxylate] |
| 0.495 | C#Cc1cccc(C2CCc3nn(C45CC(F)(C4)C5)c(=O)n32)c1 (racemic) [Compound 4-4, (±)-5-(3-ethynylphenyl)-2-(3-fluorobicyclo[1.1.1]pentan-1-yl)-2,5,6,7-tetrahydro-3H-pyrrolo[2,1-c][1,2,4]triazol-3-one] |
| 0.0218 | O=c1n(C23CC(Cl)(C2)C3)nc2n1[C@H](c1cc(F)cc(F)c1)CC2 [Compound 1-8, (5S)-2-(3-chlorobicyclo[1.1.1]pentan-1-yl)-5-(3,5-difluorophenyl)-2,5,6,7-tetrahydro-3H-pyrrolo[2,1-c][1,2,4]triazol-3-one] |
| 0.341 | Cc1ccccc1[C@@H]1CCc2nn(C34CC(F)(C3)C4)c(=O)n21 [Compound 4-15, (S)-2-(3-fluorobicyclo[1.1.1]pentan-1-yl)-5-(o-tolyl)-2,5,6,7-tetrahydro-3H-pyrrolo[2,1-c][1,2,4]triazol-3-one] |
| 0.0939 | O=c1n(C23CC(F)(C2)C3)nc2n1[C@H](c1ccccc1)COC2 [Compound 1-78, (R)-2-(3-fluorobicyclo[1.1.1]pentan-1-yl)-5-phenyl-2,5,6,8-tetrahydro-3H-[1,2,4]triazolo[3,4-c][1,4]oxazin-3-one] |
| 0.0495 | Cc1ccc([C@@H]2CCc3nn(C45CC(C#N)(C4)C5)c(=O)n32)cc1 [Compound 4-7, (S)-3-(3-oxo-5-(p-tolyl)-6,7-dihydro-3H-pyrrolo[2,1-c][1,2,4]triazol-2(5H)-yl)bicyclo[1.1.1]pentane-1-carbonitrile] |
| 0.0629 | O=c1n(C23CC(F)(C2)C3)nc2n1[C@H](c1ccc(C(F)F)cc1)CC2 [Compound 4-10, (S)-5-(4-(difluoromethyl)phenyl)-2-(3-fluorobicyclo[1.1.1]pentan-1-yl)-2,5,6,7-tetrahydro-3H-pyrrolo[2,1-c][1,2,4]triazol-3-one] |
| 0.0544 | O=c1n(C23CC(F)(C2)C3)nc2n1[C@H](c1ccc(F)cc1F)CC2 [Compound 1-48, (S)-5-(2,4-difluorophenyl)-2-(3-fluorobicyclo[1.1.1]pentan-1-yl)-2,5,6,7-tetrahydro-3H-pyrrolo[2,1-c][1,2,4]triazol-3-one] |
| 0.0681 | O=c1n(C23CC(F)(C2)C3)nc2n1[C@H](c1cccc(Cl)c1)CC2 [Compound 1-63, (S)-5-(3-chlorophenyl)-2-(3-fluorobicyclo[1.1.1]pentan-1-yl)-2,5,6,7-tetrahydro-3H-pyrrolo[2,1-c][1,2,4]triazol-3-one] |
| 0.377 | COC12CCC(n3nc4n(c3=O)[C@H](c3cc(F)cc(F)c3)CC4)(CC1)C2 [Compound 1-26, (5S)-5-(3,5-difluorophenyl)-2-(4-methoxybicyclo[2.2.1]heptan-1-yl)-2,5,6,7-tetrahydro-3H-pyrrolo[2,1-c][1,2,4]triazol-3-one] |
| 0.0986 | N#CC12CC(n3nc4n(c3=O)[C@H](c3cccc(Cl)c3)CC4)(C1)C2 [Compound 1-62, (S)-3-(5-(3-chlorophenyl)-3-oxo-6,7-dihydro-3H-pyrrolo[2,1-c][1,2,4]triazol-2(5H)-yl)bicyclo[1.1.1]pentane-1-carbonitrile] |
| 0.0902 | N#CC12CC(n3nc4n(c3=O)[C@H](c3ccc(C(F)F)cc3)CC4)(C1)C2 [Compound 7-1, (S)-3-(5-(4-(difluoromethyl)phenyl)-3-oxo-6,7-dihydro-3H-pyrrolo[2,1-c][1,2,4]triazol-2(5H)-yl)bicyclo[1.1.1]pentane-1-carbonitrile] |
| 0.198 | Cc1cnc([C@@H]2CCc3nn(C45CC(F)(C4)C5)c(=O)n32)cn1 [Compound 4-14, (S)-2-(3-fluorobicyclo[1.1.1]pentan-1-yl)-5-(5-methylpyrazin-2-yl)-2,5,6,7-tetrahydro-3H-pyrrolo[2,1-c][1,2,4]triazol-3-one] |
| 0.0497 | N#CC12CCC(n3nc4n(c3=O)[C@H](c3cc(F)cc(F)c3)CC4)(C1)C2 [Compound 1-35, 4-[(5S)-5-(3,5-difluorophenyl)-3-oxo-6,7-dihydro-3H-pyrrolo[2,1-c][1,2,4]triazol-2(5H)-yl]bicyclo[2.1.1]hexane-1-carbonitrile] |
| 0.0656 | O=c1n(C23CC(F)(C2)C3)nc2n1[C@H](c1ccc(F)cc1)CC2 [Compound 1-37, (5S)-2-(3-fluorobicyclo[1.1.1]pentan-1-yl)-5-(4-fluorophenyl)-2,5,6,7-tetrahydro-3H-pyrrolo[2,1-c][1,2,4]triazol-3-one] |
| 0.116 | O=c1n(C23CC(F)(C2)C3)nc2n1[C@H](c1cc(F)cc(F)c1)CC2F (single isomer, unassigned) [Compound 6-1, (5S)-5-(3,5-difluorophenyl)-7-(S or R)-fluoro-2-(3-fluorobicyclo[1.1.1]pentan-1-yl)-2,5,6,7-tetrahydro-3H-pyrrolo[2,1-c][1,2,4]triazol-3-one] |
| 0.16 | N#CC12CC(n3nc4n(c3=O)[C@H](c3ccc(F)cc3)CC4)(C1)C2 [Compound 1-38, 3-[(5S)-5-(4-fluorophenyl)-3-oxo-6,7-dihydro-3H-pyrrolo[2,1-c][1,2,4]triazol-2(5H)-yl]bicyclo[1.1.1]pentane-1-carbonitrile] |
| 0.0211 | N#CC12CC(n3nc4n(c3=O)[C@H](c3cc(F)cc(F)c3)CS4)(C1)C2 [Compound 1-65, (R)-3-(5-(3,5-difluorophenyl)-3-oxo-5,6-dihydrothiazolo[2,3-c][1,2,4]triazol-2(3H)-yl)bicyclo[1.1.1]pentane-1-carbonitrile] |
| 0.017 | Cc1cc(F)cc([C@@H]2CCc3nn(C45CC(F)(C4)C5)c(=O)n32)c1 [Compound 4-9, (S)-5-(3-fluoro-5-methylphenyl)-2-(3-fluorobicyclo[1.1.1]pentan-1-yl)-2,5,6,7-tetrahydro-3H-pyrrolo[2,1-c][1,2,4]triazol-3-one] |
| 0.034 | O=c1n(C23CC(F)(C2)C3)nc2n1[C@H](c1c(F)cccc1F)CC2 [Compound 1-40, (S)-5-(2,6-difluorophenyl)-2-(3-fluorobicyclo[1.1.1]pentan-1-yl)-2,5,6,7-tetrahydro-3H-pyrrolo[2,1-c][1,2,4]triazol-3-one] |
| 0.485 | N#CC12CC(n3nc4n(c3=O)[C@H](c3cncc(Cl)c3)CC4)(C1)C2 [Compound 1-22, (S)-3-(5-(5-chloropyridin-3-yl)-3-oxo-6,7-dihydro-3H-pyrrolo[2,1-c][1,2,4]triazol-2(5H)-yl)bicyclo[1.1.1]pentane-1-carbonitrile] |
| 0.274 | N#CC12CC(n3nc4n(c3=O)[C@H](c3cc(F)cc(F)c3)CC4F)(C1)C2 (single isomer, unassigned) [Compound 6-5, 3-[(5S)-5-(3,5-difluorophenyl)-7-(S or R)-fluoro-3-oxo-6,7-dihydro-3H-pyrrolo[2,1-c][1,2,4]triazol-2(5H)-yl]bicyclo[1.1.1]pentane-1-carbonitrile] |
| 0.0161 | Cc1c(F)cc([C@@H]2CCc3nn(C45CC(C#N)(C4)C5)c(=O)n32)cc1F [Compound 1-51, (S)-3-(5-(3,5-difluoro-4-methylphenyl)-3-oxo-6,7-dihydro-3H-pyrrolo[2,1-c][1,2,4]triazol-2(5H)-yl)bicyclo[1.1.1]pentane-1-carbonitrile] |
